Source: PubChem BioAssay AID248 (DTP/NCI, 2004)
Several values for one entry are separate records, joined by “and”; a condition that tells them apart may be missing. Identical values can stand only once. Toxic doses and inconclusive results are not listed. Cut-off read from the data, not from the text of the source: active = T/C of 150% or more; inactive = T/C below 125%.

Tested on: L1210 leukemia ip in BDF1 mice, survival T/C
Assay: NCI In Vivo Anticancer Drug Screen. Data for tumor model L1210 Leukemia (intraperitoneal) in B6D2F1 (BDF1) mice
Conditions: endpoint: mean survival time, higher = longer survival
Method in brief: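 Tumor cells were implanted, animals were treated, and survival was followed. The result divides the treated measurement by the vehicle-control measurement.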

[1] = dose: 100.0 mg/kg/injection, schedule: Q04DX003 (ip), vehicle: Klucel (hydroxypropylcellulose) (HPC)
[2] = dose: 200.0 mg/kg/injection, schedule: Q04DX003 (ip), vehicle: Klucel (hydroxypropylcellulose) (HPC)
[3] = dose: 400.0 mg/kg/injection, schedule: Q04DX003 (ip), vehicle: Klucel (hydroxypropylcellulose) (HPC)
[4] = dose: 50.0 mg/kg/injection, schedule: Q01DX009 (ip), vehicle: Klucel (hydroxypropylcellulose) (HPC)
[5] = dose: 100.0 mg/kg/injection, schedule: Q01DX009 (ip), vehicle: Klucel (hydroxypropylcellulose) (HPC)
[6] = dose: 200.0 mg/kg/injection, schedule: Q01DX009 (ip), vehicle: Klucel (hydroxypropylcellulose) (HPC)
[7] = dose: 50.0 mg/kg/injection, schedule: Q01DX001 (ip), vehicle: saline
[8] = dose: 100.0 mg/kg/injection, schedule: Q01DX001 (ip), vehicle: saline
[9] = dose: 200.0 mg/kg/injection, schedule: Q01DX001 (ip), vehicle: saline
[10] = dose: 400.0 mg/kg/injection, schedule: Q01DX001 (ip), vehicle: saline
[11] = dose: 100.0 mg/kg/injection, schedule: Q01DX001 (ip), vehicle: carboxymethylcellulose (CMC)
[12] = dose: 200.0 mg/kg/injection, schedule: Q01DX001 (ip), vehicle: carboxymethylcellulose (CMC)
[13] = dose: 400.0 mg/kg/injection, schedule: Q01DX001 (ip), vehicle: carboxymethylcellulose (CMC)
[14] = dose: 25.0 mg/kg/injection, schedule: Q01DX009 (ip), vehicle: Klucel (hydroxypropylcellulose) (HPC)
[15] = dose: 100.0 mg/kg/injection, schedule: Q04DX002 (ip), vehicle: Klucel (hydroxypropylcellulose) (HPC)
[16] = dose: 200.0 mg/kg/injection, schedule: Q04DX002 (ip), vehicle: Klucel (hydroxypropylcellulose) (HPC)
[17] = dose: 400.0 mg/kg/injection, schedule: Q04DX002 (ip), vehicle: Klucel (hydroxypropylcellulose) (HPC)
[18] = dose: 100.0 mg/kg/injection, schedule: Q04DX003 (ip), vehicle: saline
[19] = dose: 400.0 mg/kg/injection, schedule: Q04DX003 (ip), vehicle: saline

Measured: T/C

COc1cc(NC(C)=O)ccn1
inactive: dose: 100.0 mg/kg/injection, schedule: Q04DX003 (ip), vehicle: acetone 89 % of control | dose: 200.0 mg/kg/injection, schedule: Q04DX003 (ip), vehicle: acetone 100 % of control | dose: 400.0 mg/kg/injection, schedule: Q04DX003 (ip), vehicle: acetone 110 % of control

Cc1ccc(S(=O)(=O)N2CCC(=O)c3ccc(Cl)cc32)cc1
inactive: [1] 93 % of control | [2] 94 % of control | [3] 96 % of control

CN(CCCN1C(=O)c2ccccc2C1=O)c1ccc(N=O)cc1
inactive: dose: 25.0 mg/kg/injection, schedule: Q01DX001 (ip), vehicle: Klucel (hydroxypropylcellulose) (HPC) 101 % of control | dose: 50.0 mg/kg/injection, schedule: Q01DX001 (ip), vehicle: Klucel (hydroxypropylcellulose) (HPC) 95 % of control | dose: 100.0 mg/kg/injection, schedule: Q01DX001 (ip), vehicle: Klucel (hydroxypropylcellulose) (HPC) 92 % of control and 91 % of control

CC(=O)OCC1OC2OC(c3ccccc3)=NC2C(OC(C)=O)C1OC(C)=O (stereo unspecified)
inactive: dose: 22.5 mg/kg/injection, schedule: Q01DX001 (ip), vehicle: carboxymethylcellulose (CMC) 97 % of control | dose: 45.0 mg/kg/injection, schedule: Q01DX001 (ip), vehicle: carboxymethylcellulose (CMC) 103 % of control | dose: 90.0 mg/kg/injection, schedule: Q01DX001 (ip), vehicle: carboxymethylcellulose (CMC) 105 % of control | dose: 180.0 mg/kg/injection, schedule: Q01DX001 (ip), vehicle: carboxymethylcellulose (CMC) 97 % of control

C=CCNC(=S)Nc1cccc(C(C)O)c1 (stereo unspecified)
inactive: dose: 100.0 mg/kg/injection, schedule: Q01DX009 (ip), vehicle: saline 107 % of control | dose: 100.0 mg/kg/injection, schedule: Q04DX002 (ip), vehicle: saline 89 % of control | dose: 200.0 mg/kg/injection, schedule: Q01DX009 (ip), vehicle: saline 112 % of control | dose: 200.0 mg/kg/injection, schedule: Q04DX002 (ip), vehicle: saline 89 % of control | dose: 400.0 mg/kg/injection, schedule: Q04DX002 (ip), vehicle: saline 96 % of control

O=C(O)COc1c(Br)cc(Br)cc1Br
inactive: [4] 93 % of control | [5] 96 % of control | [6] 88 % of control

O=C1CCCC(=O)NNC(=O)Nc2ccc(cc2)Cc2ccc(cc2)NC(=O)NN1
inactive: [7] 104 % of control | [8] 90 % of control | [9] 93 % of control | [10] 93 % of control

Cc1nccnc1N/N=C\c1ccc(N(CCCl)CCCl)cc1
inactive: [11] 104 % of control | [12] 96 % of control | [13] 93 % of control

CS(=O)(=O)OCCN(CCOS(C)(=O)=O)c1ccc(C=Nc2cccc(Cl)c2)c(Cl)c1
inactive: [1] 106 % of control | [2] 105 % of control | [3] 113 % of control

O=C(O)CNc1ccc(S(=O)(=O)c2ccc(NCC(=O)O)cc2)cc1
inactive: [8] 102 % of control | [9] 102 % of control | [10] 98 % of control

O=[N+]([O-])c1ccc(S(=O)(=O)Oc2ccccc2)cc1
inactive: dose: 50.0 mg/kg/injection, schedule: Q01DX009 (ip), vehicle: saline sonified 93 % of control | dose: 100.0 mg/kg/injection, schedule: Q01DX009 (ip), vehicle: saline sonified 103 % of control | [1] 98 % of control | dose: 200.0 mg/kg/injection, schedule: Q01DX009 (ip), vehicle: saline sonified 92 % of control | [2] 91 % of control

C=CC(C)(O)C(C)(C)C (stereo unspecified)
inactive: dose: 50.0 mg/kg/injection, schedule: Q01DX009 (ip), vehicle: saline with Tween-80 100 % of control | dose: 100.0 mg/kg/injection, schedule: Q01DX009 (ip), vehicle: saline with Tween-80 96 % of control | dose: 200.0 mg/kg/injection, schedule: Q01DX009 (ip), vehicle: saline with Tween-80 100 % of control

COC(=O)c1cccc2c1ccc1ccccc12
inactive: dose: 37.5 mg/kg/injection, schedule: Q04DX003 (ip), vehicle: saline 92 % of control | [4] 111 % of control | dose: 75.0 mg/kg/injection, schedule: Q04DX003 (ip), vehicle: saline 94 % of control | [5] 105 % of control | dose: 150.0 mg/kg/injection, schedule: Q04DX003 (ip), vehicle: saline 89 % of control | [6] 96 % of control

O=C1CC(=O)c2ccccc21
inactive: dose: 100.0 mg/kg/injection, schedule: Q04DX003 (ip), vehicle: saline with Tween-80 98 % of control | dose: 200.0 mg/kg/injection, schedule: Q04DX003 (ip), vehicle: saline with Tween-80 92 % of control | dose: 400.0 mg/kg/injection, schedule: Q04DX003 (ip), vehicle: saline with Tween-80 93 % of control

ClCCN(CCCl)c1ccc(-n2cnc3c(Cl)ncnc32)cc1
inactive: dose: 32.0 mg/kg/injection, schedule: Q01DX015 (ip), vehicle: carboxymethylcellulose (CMC) 96 % of control | dose: 64.0 mg/kg/injection, schedule: Q01DX015 (ip), vehicle: carboxymethylcellulose (CMC) 96 % of control | dose: 128.0 mg/kg/injection, schedule: Q01DX015 (ip), vehicle: carboxymethylcellulose (CMC) 97 % of control | dose: 256.0 mg/kg/injection, schedule: Q01DX015 (ip), vehicle: carboxymethylcellulose (CMC) 105 % of control

CC1(C)N=C(N)N=C(N)N1c1cccc(OCCOc2ccc(N)cc2)c1
inactive: dose: 10.0 mg/kg/injection, schedule: Q01DX001 (ip), vehicle: saline 94 % of control | dose: 20.0 mg/kg/injection, schedule: Q01DX001 (ip), vehicle: saline 96 % of control | dose: 40.0 mg/kg/injection, schedule: Q01DX001 (ip), vehicle: saline 102 % of control

O=C(NCc1ccco1)NCc1ccco1
inactive: [14] 91 % of control | dose: 25.0 mg/kg/injection, schedule: Q04DX003 (ip), vehicle: Klucel (hydroxypropylcellulose) (HPC) 103 % of control | [4] 96 % of control | dose: 50.0 mg/kg/injection, schedule: Q04DX003 (ip), vehicle: Klucel (hydroxypropylcellulose) (HPC) 97 % of control | [1] 98 % of control and 101 % of control

C=CCc1ccc(OC(C)=O)c(OC)c1
inactive: [8] 96 % of control | [9] 98 % of control | [10] 108 % of control

CCCCCCCCCCCCCC(C1CCCCC1)C1CCCCC1
inactive: dose: 100.0 mg/kg/injection, schedule: Q01DX001 (ip), vehicle: saline with Tween-80 113 % of control | dose: 200.0 mg/kg/injection, schedule: Q01DX001 (ip), vehicle: saline with Tween-80 93 % of control | dose: 400.0 mg/kg/injection, schedule: Q01DX001 (ip), vehicle: saline with Tween-80 95 % of control

CC(C)(C)c1ccc(S(=O)(=O)c2ccc(C(C)(C)C)c([N+](=O)[O-])c2)cc1[N+](=O)[O-]
inactive: [15] 101 % of control | [16] 92 % of control | [17] 105 % of control

CN(C)C(=S)c1ccc(Cl)cc1
inactive: dose: 12.5 mg/kg/injection, schedule: Q01DX009 (ip), vehicle: Klucel (hydroxypropylcellulose) (HPC) 98 % of control | [14] 98 % of control

CC(Cl)(CCl)C(=O)O (stereo unspecified)
inactive: [7] 95 % of control | [8] 103 % of control

NC(=O)NC(=O)C1C2CC3OC(=O)C1C3C2 (stereo unspecified)
inactive: [18] 93 % of control | dose: 200.0 mg/kg/injection, schedule: Q04DX003 (ip), vehicle: saline 93 % of control | [19] 98 % of control

O=C(N1CCC(CCCc2ccccc2)CC1)C(Cl)(Cl)Cl
inactive: [15] 95 % of control | [16] 95 % of control | [17] 100 % of control

Cn1c2c(c(=O)[nH]c1=O)OCN(Cc1ccccc1)C2
inactive: dose: 50.0 mg/kg/injection, schedule: Q01DX001 (ip), vehicle: carboxymethylcellulose (CMC) 91 % of control | [11] 100 % of control | [12] 94 % of control | [13] 100 % of control

Oc1cncc2ccccc12
inactive: [18] 94 % of control | [19] 90 % of control

c1ccc(CN2CCOCC2)nc1
inactive: [8] 96 % of control | [9] 113 % of control | [10] 98 % of control
